The target in series [1] is T1, FLT3D835Y (Homo sapiens, UniProt P36888, D835Y).
T1 construct: purchased Carna Biosciences
T1 sequence (P36888 27-993 D835Y): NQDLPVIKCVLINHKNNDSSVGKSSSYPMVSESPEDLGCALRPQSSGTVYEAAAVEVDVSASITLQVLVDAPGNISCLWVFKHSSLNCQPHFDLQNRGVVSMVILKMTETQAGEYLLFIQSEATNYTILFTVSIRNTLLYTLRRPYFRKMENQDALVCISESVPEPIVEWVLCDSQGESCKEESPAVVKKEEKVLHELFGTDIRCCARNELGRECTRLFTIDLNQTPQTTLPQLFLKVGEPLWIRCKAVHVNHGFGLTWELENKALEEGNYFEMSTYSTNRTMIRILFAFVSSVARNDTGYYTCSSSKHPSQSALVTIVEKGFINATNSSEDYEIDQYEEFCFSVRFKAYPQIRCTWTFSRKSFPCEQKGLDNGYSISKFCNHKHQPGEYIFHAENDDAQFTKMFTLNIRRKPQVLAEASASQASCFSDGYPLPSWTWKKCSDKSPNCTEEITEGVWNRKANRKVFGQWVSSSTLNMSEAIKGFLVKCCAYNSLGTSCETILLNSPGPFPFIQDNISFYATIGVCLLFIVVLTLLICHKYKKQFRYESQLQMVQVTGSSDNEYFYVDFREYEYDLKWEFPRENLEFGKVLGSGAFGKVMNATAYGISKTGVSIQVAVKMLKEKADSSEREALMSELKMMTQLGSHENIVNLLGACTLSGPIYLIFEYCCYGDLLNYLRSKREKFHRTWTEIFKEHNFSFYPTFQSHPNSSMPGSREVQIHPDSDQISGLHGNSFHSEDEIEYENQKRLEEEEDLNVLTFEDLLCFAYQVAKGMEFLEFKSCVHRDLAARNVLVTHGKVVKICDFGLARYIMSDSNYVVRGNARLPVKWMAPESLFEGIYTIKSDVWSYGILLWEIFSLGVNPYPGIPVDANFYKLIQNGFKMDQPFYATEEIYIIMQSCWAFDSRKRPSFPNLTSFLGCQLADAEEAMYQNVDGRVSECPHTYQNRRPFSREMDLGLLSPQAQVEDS
Briefly: FLT3D835Y microfluidic kinase assay. It is filed as biochemical. How it is done: Compounds were tested against FLT3, FLT3ITD and FLT3D835Y.
Assay Formats: FLT3 activity was determined in the reaction buffer 50 mM HEPES, 10 mM MgCl2 and 2 mM DTT by a microfluidic assay. The phosphorylation of a FAM labeled peptide substrate was monitored in the Caliper EZ Reader II (Perkin Elmer). The assay condition for each batch of enzyme (Carna Biosciences) was optimized to obtain 10% conversion rate of peptide substrate.
The test compounds were dissolved in DMSO to a stock concentration of 10 mM. 3-fold serially diluted compounds with top concentration of 5 μM were pre-incubated with FLT3, FLT3ITD or FLT3D835Y for 10 min at ambient temperature. The final DMSO concentration of assay mixture was 1%. […] The reaction was stopped by adding 50 mM EITA. The reaction time for FLT3, FLT3ITD and FLT3D8335Y was 30 min, 40 min and 40 min, respectively.
And the well without compound but with equivalent DMSO was defined as no inhibition. The percent inhibition was calculated by the following formula. % Inhibition=(Conversionmax−Conversionsample)/(Conversionmax−Conversionmin)*100 • Conversionmax means the conversion rate in the positive well without addition of compound • Conversionmin means the conversion rate in the well without addition of enzyme • Conversionsample means the conversion rate of test compounds
The dose-response (percent inhibition) curve was plotted and IC50 values were determined by GraphPad software.

The nature of series [2]: Liver microsomes study, Phase I stability (RLM). It is filed as in vitro ADME, rat. The note with it: pH 7.4; rat liver microsomes 0.5 mg/mL, 1 μM test article; read-out: RLM Clint. In short, it runs like this: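 Rat or human liver microsomes were incubated with test article, and reactions started with an NADPH regenerating system. Samples at 0, 10, 30 and 90 minutes were quenched with cold acetonitrile and analyzed by LC/MS/MS. T½ and CLint came from the ln(% remaining) versus time slope, scaled by protein concentration.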
A general note: Liver microsomes are vesicles of endoplasmic reticulum, rich in cytochrome P450 enzymes.

Series [3] addresses T2, CYP2C9 (Homo sapiens, UniProt P11712).
T2 construct: 0.2 mg/mL human liver microsomes was pre-incubated in 180 μL reaction mixture; from tissue; host or cells: pooled human liver microsomes
As to the kind of experiment: CYPs inhibition in pooled human liver microsomes, probe substrate Diclofenac. The format is in vitro ADME. How it is done:
(§1) The inhibitory potential of test articles in pooled human liver microsomes was evaluated by the method using a cocktail of CYP substrates. […] For the negative control well, the test articles was replaced with 20 μL reaction buffer. After 10 min of pre-incubation at 37° C., 20 μL 10 mM NADPH cofactor was added to the pre-reaction mixtures. After another 10 min incubation, the reaction was stopped by adding 400 μL of ice cold acetonitrile solution containing tolbutamide and labetalol served as internal standards. The incubation mixtures were centrifuged at 4000×g for 20 min, and then the supernatants were analyzed by LC-MS/MS after dilution. SigmaPlot was applied to plot % control activity versus the test compound concentrations, and for non-linear regression analysis of the data. IC50 values of test articles were determined using 3-parameter logistic equation.

Series [4] deals with T3, CYP2C19 (Homo sapiens, UniProt P33261).
T3 construct: 0.2 mg/mL human liver microsomes was pre-incubated in 180 μL reaction mixture; from tissue; host or cells: pooled human liver microsomes
T3 sequence (P33261 whole entry): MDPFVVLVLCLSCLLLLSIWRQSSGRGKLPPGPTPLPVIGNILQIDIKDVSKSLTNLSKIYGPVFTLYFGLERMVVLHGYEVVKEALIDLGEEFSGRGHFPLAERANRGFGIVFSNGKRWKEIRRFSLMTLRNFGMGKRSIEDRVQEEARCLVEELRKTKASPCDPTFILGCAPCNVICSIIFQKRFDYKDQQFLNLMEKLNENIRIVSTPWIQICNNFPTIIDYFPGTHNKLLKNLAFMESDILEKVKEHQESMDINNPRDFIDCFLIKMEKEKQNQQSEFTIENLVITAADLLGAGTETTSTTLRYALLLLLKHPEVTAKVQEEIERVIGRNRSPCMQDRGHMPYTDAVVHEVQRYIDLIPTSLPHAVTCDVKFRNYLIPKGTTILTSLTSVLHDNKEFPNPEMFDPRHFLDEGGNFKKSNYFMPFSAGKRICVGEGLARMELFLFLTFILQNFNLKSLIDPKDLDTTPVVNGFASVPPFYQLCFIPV
Briefly: CYPs inhibition in pooled human liver microsomes, probe substrate S-mephenytoin. It is filed as in vitro ADME. How it is done: as §1

In series [5] the target is T4, CYP2D6 (Homo sapiens, UniProt P10635).
T4 construct: 0.2 mg/mL human liver microsomes was pre-incubated in 180 μL reaction mixture; from tissue; host or cells: pooled human liver microsomes
T4 sequence (P10635 whole entry): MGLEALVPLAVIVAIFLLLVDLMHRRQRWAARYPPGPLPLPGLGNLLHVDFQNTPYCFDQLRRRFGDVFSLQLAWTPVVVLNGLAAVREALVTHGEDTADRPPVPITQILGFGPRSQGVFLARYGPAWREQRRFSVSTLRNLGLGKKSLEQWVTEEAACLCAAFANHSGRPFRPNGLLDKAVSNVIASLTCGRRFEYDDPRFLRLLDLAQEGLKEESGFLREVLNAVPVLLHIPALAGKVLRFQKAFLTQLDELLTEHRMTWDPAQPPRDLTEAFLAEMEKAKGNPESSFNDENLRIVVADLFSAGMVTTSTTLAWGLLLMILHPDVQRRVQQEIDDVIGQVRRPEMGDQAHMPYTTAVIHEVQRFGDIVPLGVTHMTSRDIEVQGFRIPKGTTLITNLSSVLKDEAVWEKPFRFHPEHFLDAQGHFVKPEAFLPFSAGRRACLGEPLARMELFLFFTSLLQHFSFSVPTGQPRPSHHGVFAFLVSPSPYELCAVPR
As to the kind of experiment: CYPs inhibition in pooled human liver microsomes, probe substrate Dextromethorphan. The format is in vitro ADME. How it is done: as §1

The target in series [6] is T5, CYP3A4 (Homo sapiens, UniProt P08684).
T5 construct: 0.2 mg/mL human liver microsomes was pre-incubated in 180 μL reaction mixture; from tissue; host or cells: pooled human liver microsomes
T5 sequence (P08684 whole entry): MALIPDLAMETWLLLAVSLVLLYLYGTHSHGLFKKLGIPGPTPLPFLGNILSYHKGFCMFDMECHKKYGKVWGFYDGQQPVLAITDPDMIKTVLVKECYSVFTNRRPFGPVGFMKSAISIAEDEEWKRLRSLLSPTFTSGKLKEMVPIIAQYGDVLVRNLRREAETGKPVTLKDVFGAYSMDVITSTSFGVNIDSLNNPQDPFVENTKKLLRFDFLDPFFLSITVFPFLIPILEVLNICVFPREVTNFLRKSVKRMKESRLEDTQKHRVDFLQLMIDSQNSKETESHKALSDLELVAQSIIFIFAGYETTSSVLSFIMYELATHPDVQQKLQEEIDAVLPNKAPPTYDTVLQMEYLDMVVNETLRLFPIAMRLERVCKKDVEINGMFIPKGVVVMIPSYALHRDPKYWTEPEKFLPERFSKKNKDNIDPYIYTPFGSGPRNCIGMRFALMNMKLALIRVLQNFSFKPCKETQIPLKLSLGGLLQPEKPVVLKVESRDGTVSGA
Briefly: CYPs inhibition in pooled human liver microsomes, probe substrate Midazolam. The format is in vitro ADME. How it is done:
as §1

T2 sequence (P11712 whole entry): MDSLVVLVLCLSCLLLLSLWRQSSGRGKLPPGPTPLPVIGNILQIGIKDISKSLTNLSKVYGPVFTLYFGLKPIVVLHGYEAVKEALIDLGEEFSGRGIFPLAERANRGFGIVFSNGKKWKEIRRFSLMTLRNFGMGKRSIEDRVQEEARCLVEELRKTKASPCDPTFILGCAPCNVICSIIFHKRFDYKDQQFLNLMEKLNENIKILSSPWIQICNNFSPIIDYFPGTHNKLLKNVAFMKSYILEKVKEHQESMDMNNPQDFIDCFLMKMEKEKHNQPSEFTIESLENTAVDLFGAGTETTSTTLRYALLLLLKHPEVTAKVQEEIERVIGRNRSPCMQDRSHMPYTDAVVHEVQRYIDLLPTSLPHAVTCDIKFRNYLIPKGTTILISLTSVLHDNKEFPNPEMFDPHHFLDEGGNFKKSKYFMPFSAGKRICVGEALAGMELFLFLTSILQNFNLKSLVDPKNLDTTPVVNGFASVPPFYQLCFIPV

Usually IC50 stands for the concentration that gives 50% inhibition. Turning to `Cn1cc(Nc2ncc(Cl)c(-c3ccc(C(=O)NCC#N)cc3)n2)cn1` [Example 34, 4-(5-Chloro-2-((1-methyl-1H-pyrazol-4-yl)amino)pyrimidin-4-yl)-N-(cyanomethyl)benzamide], the midpoint of inhibition in series [1], the IC50, lay at 0.0155 µM. Also, the microsomal CLint at 1 μM in series [2] stood at 31.6 µL/min/mg.
In series [1], `CC[C@@H](C#N)NC(=O)c1ccc(-c2nc(Nc3cnn(C4CC4)c3)ncc2Cl)cc1` [Example 61, (S)-4-(5-chloro-2-((1-cyclopropyl-1H-pyrazol-4-yl)amino)pyrimidin-4-yl)-N-(1-cyanopropyl)benzamide] had an IC50 of 0.0115 µM.
The same measure, in the same setting: as for `CCNC(=O)c1ccc(-c2nc(Nc3cnn(C)c3)ncc2C)cc1` [Example 222, N-ethyl-4-(5-methyl-2-((1-methyl-1H-pyrazol-4-yl)amino)pyrimidin-4-yl)benzamide], the figure is 4.32 µM.
As for `CC[C@@H](C#N)NC(=O)c1ccc(-c2nc(Nc3cnn(C4CCN(C)CC4)c3)ncc2C)cc1` [Example 184, (S)—N-(1-Cyanopropyl)-4-(5-methyl-2-((1-(1-methylpiperidin-4-yl)-1H-pyrazol-4-yl)amino)pyrimidin-4-yl)benzamide], the IC50 in series [3], in series [4], in series [5] and in series [6] was > 50 µM each time. Further, in series [2], the microsomal CLint at 1 μM came out at 78.5 µL/min/mg.
In the case of `CC[C@@H](C#N)NC(=O)c1ccc(-c2nc(Nc3cnn(C4CCNCC4)c3)ncc2Cl)cc1` [Example 183, (S)-4-(5-chloro-2-((1-(piperidin-4-yl)-1H-pyrazol-4-yl)amino)pyrimidin-4-yl)-N-(1-cyanopropyl)benzamide], the IC50 in series [3] was 3.18 µM; in series [4] it was > 50 µM; in series [5], 42 µM; in series [6], 18.2 µM. In addition, the microsomal CLint at 1 μM in series [2] amounted to 18.9 µL/min/mg.
Consider `C[C@@H](C#N)NC(=O)c1ccc(-c2nc(Nc3cnn(C4CC4)c3)ncc2Cl)cc1` [Example 111, (S)-4-(5-Chloro-2-((1-cyclopropyl-1H-pyrazol-4-yl)amino)pyrimidin-4-yl)-N-(1-cyanoethyl)benzamide], for which the midpoint of inhibition in series [1], the IC50, lay at 0.0119 µM.
With `Cc1cnc(Nc2cnn(C3CC(C)(C)OC(C)(C)C3)c2)nc1-c1ccc(C(=O)NCC#N)cc1` [Example 113, N-(cyanomethyl)-4-(5-methyl-2-((1-(2,2,6,6-tetramethyltetrahydro-2H-pyran-4-yl)-1H-pyrazol-4-yl)amino)pyrimidin-4-yl)benzamide], the IC50 in series [3] came out at 14.1 µM; in series [4], 6.36 µM; in series [5], 35.4 µM; in series [6], 19.6 µM. Also, the microsomal CLint at 1 μM in series [2] is 73.9 µL/min/mg.
For `C[C@@H](C#N)NC(=O)c1ccc(-c2nc(Nc3cnn(C4CCNCC4)c3)ncc2Cl)cc1` [Example 165, (S)-4-(5-chloro-2-((1-(piperidin-4-yl)-1H-pyrazol-4-yl)amino)pyrimidin-4-yl)-N-(1-cyanoethyl)benzamide] the same measures were 19 µM, > 50 µM, > 50 µM, 41.5 µM and 26 µL/min/mg.
On to `Cc1cnc(Nc2cnn(C3CCN(C(=O)CO)CC3)c2)nc1-c1ccc(C(=O)N[C@@H](C)C#N)cc1` [Example 119, (S)—N-(1-cyanoethyl)-4-(2-((1-(1-(2-hydroxyacetyl)piperidin-4-yl)-1H-pyrazol-4-yl)amino)-5-methylpyrimidin-4-yl)benzamide], for which the IC50 in series [3], in series [4], in series [5] and in series [6] was > 50 µM in each case.
Consider `C[C@@H](C#N)NC(=O)c1ccc(-c2nc(Nc3cnn(C4CCN(C)CC4)c3)ncc2Cl)cc1` [Example 43, (S)-4-(5-Chloro-2-((1-(1-methylpiperidin-4-yl)-1H-pyrazol-4-yl)amino)pyrimidin-4-yl)-N-(1-cyanoethyl)benzamide], for which the IC50 in series [3], in series [4], in series [5] and in series [6] was > 50 µM in each case. In addition, in series [2], the microsomal CLint at 1 μM amounted to 101 µL/min/mg.
`Cc1cnc(Nc2cnn(CC#N)c2)nc1-c1ccc(C(=O)NCC#N)cc1` [Example 4, N-(Cyanomethyl)-4-(2-((1-(cyanomethyl)-1H-pyrazol-4-yl)amino)-5-methylpyrimidin-4-yl)benzamide]: the IC50 in series [3], in series [4], in series [5] and in series [6] was > 50 µM each time. Also, in series [2], the microsomal CLint at 1 μM is 16.4 µL/min/mg.
On to `Cc1cnc(Nc2cnn(C)c2)nc1-c1ccc(C(=O)NC(C)C)cc1` [Example 223, N-isopropyl-4-(5-methyl-2-((1-methyl-1H-pyrazol-4-yl)amino)pyrimidin-4-yl)benzamide], for which the IC50 in series [1] came out at 2.83 µM.
Consider `N#CCNC(=O)c1ccc(-c2nc(Nc3cnn(C4CC4)c3)ncc2Cl)cc1` [Example 95, 4-(5-Chloro-2-((1-cyclopropyl-1H-pyrazol-4-yl)amino)pyrimidin-4-yl)-N-(cyanomethyl)benzamide], for which the microsomal CLint at 1 μM in series [2] is 31.1 µL/min/mg.
Regarding `CNC(=O)c1ccc(-c2nc(Nc3cnn(C)c3)ncc2C)cc1` [Example 10, N-Methyl-4-(5-methyl-2-((1-methyl-1H-pyrazol-4-yl)amino)pyrimidin-4-yl)benzamide], in series [1], it took 2.04 µM to reach half-maximal inhibition (IC50).
In series [1], `C[C@@H](C#N)NC(=O)c1ccc(-c2nc(Nc3cnn(C)c3)ncc2Cl)cc1` [Example 125, (S)-4-(5-chloro-2-((1-methyl-1H-pyrazol-4-yl)amino)pyrimidin-4-yl)-N-(1-cyanoethyl)benzamide] came in with an IC50 of 0.0438 µM. In series [2], the microsomal CLint at 1 μM amounted to 28.4 µL/min/mg.

The values above are taken from patent US12595253B2, “Benzamides of pyrazolylamino-pyrimidinyl derivatives, and compositions and methods thereof” (LYNK PHARMACEUTICALS CO. LTD., priority 2019, dated 2026).
